From ChEMBL document CHEMBL1201862, “PubChem BioAssay data set” (2004) come the findings set out here.

Common to all, as to test: NCI-60 cell line screen, 48 h
The test system of experiment [1] is ACHN.
Experiment [2] deals with HCT-15.
Experiment [3] deals with HL-60.
In experiment [4] the test system is HOP-92.
The test system of experiment [5] is K562.
In experiment [6] the test system is KM12.
The test system of experiment [7] is LOX IMVI.
For experiment [8], the system named is NCI-H522.
For experiment [9], the system named is OVCAR-3.
Experiment [10] concerns OVCAR-4.
The subject of experiment [11] is OVCAR-5.
In experiment [12] the test system is RXF 393.
Experiment [13] deals with SK-MEL-2.
In experiment [14] the test system is SK-MEL-5.
For experiment [15], the system named is SK-OV-3.
The subject of experiment [16] is SW-620.
The subject of experiment [17] is TK-10.
Experiment [18] relates to UO-31.

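Cells were grown in 96-well plates and exposed to each compound for 48 hours at five concentrations; endpoints were interpolated linearly between bracketing concentrations, or set to the highest concentration if not reached. At the GI50, growth is halved.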 Active and inactive are the calls of the source. Rule as the data show it: active = GI50 up to about 1.1 µM and inactive = higher. Where only a bound is given, the exact number is not on record here.

Turning to `O=C(c1ccccc1)c1nnn(Cc2cccc(Cl)c2)c1C(=O)c1ccccc1`, the GI50 in experiment [1] is > 100 µM (inactive); in experiment [2], greater than 100 µM; in experiment [3] it was > 100 µM (inactive); in experiment [4], > 100 µM (inactive); in experiment [5] it was > 100 µM (inactive); in experiment [6], > 100 µM (inactive). In addition, the GI50 in experiment [7], in [8], in experiment [9], in experiment [10], in [11] and in [12] was > 100 µM (inactive) throughout. For the same compound, the GI50 in experiment [13] was > 100 µM (inactive); in experiment [14] it was 88.3 µM (inactive); in [15], 34.8 µM (inactive); in experiment [16], > 100 µM (inactive); in experiment [17] it was > 100 µM (inactive); in experiment [18] it was > 100 µM (inactive).
Consider `C/C(CC(=O)Nc1cc(Cl)c(Cl)cc1Cl)=N\NC(N)=O`, for which the GI50 in experiment [3] was > 100 µM (inactive); in experiment [4] it was 39.1 µM (inactive); in [5] it was > 100 µM (inactive); in experiment [6] it was > 100 µM (inactive); in experiment [7], > 100 µM (inactive); in [8] it was 28.1 µM (inactive). In addition, the GI50 was > 100 µM (inactive) in experiment [9]; > 100 µM (inactive) in [11]; 61.7 µM (inactive) in experiment [12]; > 100 µM (inactive) in experiment [13]; > 100 µM (inactive) in experiment [14]; > 100 µM (inactive) in experiment [15]. Besides, the GI50 in experiment [16], in [17] and in experiment [18] was > 100 µM (inactive) each time.
Consider `CC(=O)NC1C(OCc2ccccc2)OC(CO)C(O)C1OC(C)C(=O)N[C@@H](C)C(=O)N[C@H](CCC(=O)OCCNc1c2ccccc2nc2cccc([N+](=O)[O-])c12)C(N)=O` (stereo partly specified), for which the GI50 in experiment [1] was 0.00145 µM (active); in experiment [2] it was 0.000166 µM; in experiment [3] it was 0.00647 µM (active); in experiment [4] it was 0.00178 µM (active); in [5], 0.00094 µM (active); in experiment [6], 0.00114 µM (active). In addition, the GI50 in [8] is 0.00174 µM (active); in experiment [9], 0.00142 µM (active); in experiment [10], 0.0038 µM (active); in experiment [11], 0.00206 µM (active); in experiment [12], 0.0012 µM (active); in experiment [13], 0.00211 µM (active). Besides, the GI50 in [14] is 0.00239 µM (active); in experiment [15] it was 0.00711 µM (active); in [16] it was 0.000191 µM (active); in experiment [17] it was 0.00344 µM (active); in experiment [18], 0.00292 µM (active).
Take `CC(=O)NNc1nc(C)c(C(=O)/C=C/c2cccc([N+](=O)[O-])c2)s1`: the GI50 is greater than 100 µM in [2]; > 100 µM (inactive) in experiment [3]; > 100 µM (inactive) in experiment [4]; > 100 µM (inactive) in experiment [5]; > 100 µM (inactive) in experiment [6]; > 100 µM (inactive) in experiment [7]. For the same compound, the GI50 in experiment [8], in [9], in experiment [11], in [12], in experiment [13] and in experiment [14] was > 100 µM (inactive) throughout. Besides, the GI50 in experiment [15], in [16], in experiment [17] and in experiment [18] was > 100 µM (inactive) each time.
Turning to `O=CN/C=C/c1ccccc1O`, the GI50 in experiment [1] was > 100 µM (inactive); in experiment [2], greater than 100 µM; in experiment [3], > 86.7 µM (inactive); in experiment [4], > 100 µM (inactive); in experiment [5], > 31.6 µM (inactive); in experiment [6], > 100 µM (inactive). The GI50 in experiment [7], in experiment [8], in experiment [9], in experiment [10], in experiment [11] and in experiment [12] was > 100 µM (inactive) throughout. For the same compound, the GI50 in experiment [13], in [14], in [15], in experiment [16], in experiment [17] and in [18] was > 100 µM (inactive) throughout.
As to `C#Cc1ccccc1C(=O)OC`, the GI50 was > 100 µM (inactive) in experiment [1]; greater than 100 µM in experiment [2]; > 100 µM (inactive) in [3]; > 100 µM (inactive) in experiment [4]; > 100 µM (inactive) in experiment [5]; > 100 µM (inactive) in experiment [6]. The GI50 in experiment [7] was > 100 µM (inactive); in experiment [8] it was 35.9 µM (inactive); in [9], > 100 µM (inactive); in experiment [10] it was > 100 µM (inactive); in experiment [11] it was > 100 µM (inactive); in experiment [12] it was > 100 µM (inactive). Moreover, the GI50 in experiment [13], in [14], in [15], in experiment [16], in [17] and in experiment [18] was > 100 µM (inactive) in each case.
With `COC(=O)C1=C(\O)C[C@@]2(C)CC[C@@H](C(=O)OC)C2C/C=C\1C(=O)OC` (stereo partly specified), the GI50 in experiment [1] was > 100 µM (inactive); in experiment [2] it was greater than 100 µM; in experiment [3], 49.5 µM (inactive); in [4], > 100 µM (inactive); in experiment [6] it was > 100 µM (inactive); in experiment [7], > 100 µM (inactive). Further, the GI50 in [8] was > 100 µM (inactive); in experiment [9], > 100 µM (inactive); in experiment [10], > 100 µM (inactive); in experiment [11], 46.3 µM (inactive); in experiment [12], 40.6 µM (inactive); in experiment [14] it was 48.9 µM (inactive). In addition, the GI50 in experiment [15] was > 100 µM (inactive); in experiment [16] it was > 100 µM (inactive); in [17], > 100 µM (inactive); in [18] it was 64 µM (inactive).
Consider `CC12CCCC(C#N)(C1)OC2=O` (stereo unspecified), for which the GI50 in [1], in experiment [3], in [4], in [5], in [6] and in [8] was > 100 µM (inactive) throughout. The GI50 in [9], in [10], in experiment [11], in experiment [12], in experiment [13] and in [14] was > 100 µM (inactive) each time. For the same compound, the GI50 in experiment [15], in [16], in experiment [17] and in experiment [18] was > 100 µM (inactive) each time.
Turning to `[O-]c1c2c(nn1-c1ccc(F)cc1)c1ccccc1c[n+]2Cc1ccccc1`, the GI50 in [1] is 1.77 µM (inactive); in [2], 0.581 µM; in experiment [3], 0.327 µM (active); in [4], 18.9 µM (inactive); in experiment [5], 0.687 µM (active); in experiment [6] it was 1.43 µM (inactive). The GI50 in [8] was 4.12 µM (inactive); in [9], 7.69 µM (inactive); in [10], 19.3 µM (inactive); in experiment [11], 11.9 µM (inactive); in experiment [12] it was 15.1 µM (inactive); in experiment [13], 0.501 µM (active). Also, the GI50 was 3.96 µM (inactive) in [14]; 14.6 µM (inactive) in [15]; 14.8 µM (inactive) in experiment [16]; 24.6 µM (inactive) in experiment [17]; 10.2 µM (inactive) in [18].
